Biological target: T1, human GR (Homo sapiens, UniProt P04150)
T1 construct: naturally expresses the human GR; endogenous in cells
T1 sequence (P04150 1-777): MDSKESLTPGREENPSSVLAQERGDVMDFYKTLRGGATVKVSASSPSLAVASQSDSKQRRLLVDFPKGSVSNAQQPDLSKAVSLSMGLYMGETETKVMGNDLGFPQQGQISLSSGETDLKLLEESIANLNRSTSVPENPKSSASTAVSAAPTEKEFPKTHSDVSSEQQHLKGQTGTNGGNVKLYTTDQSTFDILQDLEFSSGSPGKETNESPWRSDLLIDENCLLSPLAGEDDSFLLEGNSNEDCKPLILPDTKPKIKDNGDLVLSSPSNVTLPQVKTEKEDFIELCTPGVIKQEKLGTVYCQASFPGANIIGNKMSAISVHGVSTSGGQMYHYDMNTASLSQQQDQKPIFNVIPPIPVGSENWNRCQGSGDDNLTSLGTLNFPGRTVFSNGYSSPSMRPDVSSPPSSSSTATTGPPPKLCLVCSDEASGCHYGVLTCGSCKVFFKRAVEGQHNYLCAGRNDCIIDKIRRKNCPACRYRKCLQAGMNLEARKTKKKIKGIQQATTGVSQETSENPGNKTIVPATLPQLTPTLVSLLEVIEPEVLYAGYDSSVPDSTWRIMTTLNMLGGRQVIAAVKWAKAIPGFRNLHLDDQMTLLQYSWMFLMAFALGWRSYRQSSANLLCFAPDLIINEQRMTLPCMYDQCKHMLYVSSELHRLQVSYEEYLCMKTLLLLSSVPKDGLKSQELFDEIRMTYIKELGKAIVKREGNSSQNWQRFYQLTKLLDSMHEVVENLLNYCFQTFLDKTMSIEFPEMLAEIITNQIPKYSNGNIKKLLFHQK
Assay: Trans-activation modulation of glucocorticoid receptor (GRAMMER), MMTV-LUC reporter in A549 cells
Assay type: cell-based
Details: for Emax: A549, A549 cells, read-out: Transactivation A549 Cells Grammer Emax (%); for Emax / Transactivation A549 Cells Grammer Emax (%): Emax relative to the activity obtained with 300 nM dexamethasone; for EC50 / Transactivation A549 Cells Grammer Emax (%): A549 cells; for EC50: IP = inflection point, read-out: Transactivation A549 Cells Grammer IP

Emax | EC50 | Transactivation A549 Cells Grammer Emax (%) | Structure (SMILES)
12% | 74 nM |  | NC(=O)c1ccccc1CC[C@]1(O)CCC2=Cc3c(cnn3-c3ccccc3)C[C@@]21C1CC1 [Example 29, 2-{2-[(4aR,5R)-4a-Cyclopropyl-5-hydroxy-1-phenyl-1,4,4a,5,6,7-hexahydrocyclopenta[f]indazol-5-yl]ethyl}benzamide]
11% | 9 nM |  | CS(=O)(=O)c1ccccc1CC[C@]1(O)CCC2=Cc3c(cnn3-c3ccc(F)cc3)C[C@@]21C1CC1 [Example 58, (4aR,5R)-4a-Cyclopropyl-1-(4-fluorophenyl)-5-{2-[2-(methylsulfonyl)phenyl]ethyl}-1,4,4a,5,6,7-hexahydrocyclopenta[f]indazol-5-ol]
49% | 10 nM |  | CC[C@]12Cc3cnn(-c4ccc(F)cc4)c3C=C1CC[C@@]2(O)CCc1cccc(OC)c1C(N)=O [Example 37, 2-{2-[(4aS,5R)-4a-Ethyl-1-(4-fluorophenyl)-5-hydroxy-1,4,4a,5,6,7-hexahydrocyclopenta[f]indazol-5-yl]ethyl}-6-methoxybenzamide]
31% | 80 nM |  | CC[C@]12Cc3cnn(-c4ccc(F)cc4)c3C=C1CC[C@@]2(O)CCc1ccccn1 [Example 16, (4aS,5R)-4a-Ethyl-1-(4-fluorophenyl)-5-[2-(pyridin-2-yl)ethyl]-1,4,4a,5,6,7-hexahydrocyclopenta[f]indazol-5-ol]
58% | 23 nM |  | CC[C@]12Cc3cnn(-c4cccc(F)c4)c3C=C1CC[C@@]2(O)CCc1cccc(F)c1C(N)=O [Example 12, 2-{2-[(4aS,5R)-4a-Ethyl-1-(3-fluorophenyl)-5-hydroxy-1,4,4a,5,6,7-hexahydrocyclopenta[f]indazol-5-yl]ethyl}-6-fluorobenzamide]
 | 161 nM | 58% | CC[C@]12Cc3cnn(-c4ccc(F)cc4)c3C=C1CC[C@@]2(O)CCc1ccccc1C(O)C(N)=O (stereo partly drawn) [Example 26, 2-(2-{2-[(4aS,5R)-4a-Ethyl-1-(4-fluorophenyl)-5-hydroxy-1,4,4a,5,6,7-hexahydrocyclopenta[f]indazol-5-yl]ethyl}phenyl)-2-hydroxyacetamide]
8% | 32 nM |  | N#Cc1c(F)cccc1CC[C@]1(O)CCC2=Cc3c(cnn3-c3ccccc3)C[C@@]21C1CC1 [Example 28, 2-{2-[(4aR,5R)-4a-Cyclopropyl-5-hydroxy-1-phenyl-1,4,4a,5,6,7-hexahydrocyclopenta[f]indazol-5-yl]ethyl}-6-fluorobenzonitrile]
31% | 76 nM |  | CC[C@]12Cc3cnn(-c4ccc(F)cc4)c3C=C1CC[C@@]2(O)CCc1cncc(F)c1 [Example 21, (4aS,5R)-4a-Ethyl-1-(4-fluorophenyl)-5-[2-(5-fluoropyridin-3-yl)ethyl]-1,4,4a,5,6,7-hexahydrocyclopenta[f]indazol-5-ol]
50% | 26 nM |  | CC(C)(CO)NC(=O)c1cc(F)cnc1CC[C@]1(O)CCC2=Cc3c(cnn3-c3ccc(F)cc3)C[C@@]21C1CC1 [Example 48, 2-{2-[(4aR,5R)-4a-Cyclopropyl-1-(4-fluorophenyl)-5-hydroxy-1,4,4a,5,6,7-hexahydrocyclopenta[f]indazol-5-yl]ethyl}-5-fluoro-N-(1-hydroxy-2-methylpropan-2-yl)pyridine-3-carboxamide]
32% | 52 nM |  | CC[C@]12Cc3cnn(-c4ccc(F)cc4)c3C=C1CC[C@@]2(O)CCc1cc(F)ccn1 [Example 18, (4aS,5R)-4a-Ethyl-1-(4-fluorophenyl)-5-[2-(4-fluoropyridin-2-yl)ethyl]-1,4,4a,5,6,7-hexahydrocyclopenta[f]indazol-5-ol]
26% | 178 nM |  | CC[C@]12Cc3cnn(-c4ccccc4)c3C=C1CC[C@@]2(O)CCc1ccc(F)cc1C(N)=O [Example 6]
11% | 10 nM |  | COc1cccc(CC[C@]2(O)CCC3=Cc4c(cnn4-c4ccc(F)cc4)C[C@@]32C2CC2)c1C(N)=O [Example 38, 2-{2-[(4aR,5R)-4a-Cyclopropyl-1-(4-fluorophenyl)-5-hydroxy-1,4,4a,5,6,7-hexahydrocyclopenta[f]indazol-5-yl]ethyl}-6-methoxybenzamide]
18% | 156 nM |  | CC[C@]12Cc3cnn(-c4ccc(F)cc4)c3C=C1CC[C@@]2(O)CCc1ccc(F)cn1 [Example 19, (4aS,5R)-4a-Ethyl-1-(4-fluorophenyl)-5-[2-(5-fluoropyridin-2-yl)ethyl]-1,4,4a,5,6,7-hexahydrocyclopenta[f]indazol-5-ol]
11% | 59 nM |  | Cc1ccnc(CC[C@]2(O)CCC3=Cc4c(cnn4-c4ccc(F)cc4)C[C@@]32C2CC2)c1 [Example 36, (4aR,5R)-4a-Cyclopropyl-1-(4-fluorophenyl)-5-[2-(4-methylpyridin-2-yl)ethyl]-1,4,4a,5,6,7-hexahydrocyclopenta[f]indazol-5-ol]
14% | 116 nM |  | NC(=O)c1cc(F)ccc1CC[C@]1(O)CCC2=Cc3c(cnn3-c3ccc(F)cc3)C[C@@]21C1CC1 [Example 39, 2-{2-[(4aR,5R)-4a-Cyclopropyl-1-(4-fluorophenyl)-5-hydroxy-1,4,4a,5,6,7-hexahydrocyclopenta[f]indazol-5-yl]ethyl}-5-fluorobenzamide]
 | 108 nM | 19% | NC(=O)C(O)c1ccccc1CC[C@]1(O)CCC2=Cc3c(cnn3-c3ccc(F)cc3)C[C@@]21C1CC1 (single isomer, unassigned) [Example 3b]
41% | 83 nM |  | CC[C@]12Cc3cnn(-c4cccc(F)c4)c3C=C1CC[C@@]2(O)CCc1ccccc1C(N)=O [Example 11, 2-{2-[(4aS,5R)-4a-Ethyl-1-(3-fluorophenyl)-5-hydroxy-1,4,4a,5,6,7-hexahydrocyclopenta[f]indazol-5-yl]ethyl}benzamide]
59% | 64 nM |  | CC[C@]12Cc3cnn(-c4ccc(F)cc4)c3C=C1CC[C@@]2(O)CCc1ncccc1C(N)=O [Example 52, 2-{2-[(4aS,5R)-4a-Ethyl-1-(4-fluorophenyl)-5-hydroxy-1,4,4a,5,6,7-hexahydrocyclopenta[f]indazol-5-yl]ethyl}pyridine-3-carboxamide]
11% | 65 nM |  | O[C@@]1(CCc2cc(C(F)(F)F)ccn2)CCC2=Cc3c(cnn3-c3ccc(F)cc3)C[C@@]21C1CC1 [Example 32, (4aR,5R)-4a-Cyclopropyl-1-(4-fluorophenyl)-5-{2-[4-(trifluoromethyl)pyridin-2-yl]ethyl}-1,4,4a,5,6,7-hexahydrocyclopenta[f]indazol-5-ol]
 | 113 nM | 26% | CC[C@]12Cc3cnn(-c4ccc(F)cc4)c3C=C1CC[C@@]2(O)CC(O)c1ccc(F)cn1 (single isomer, unassigned) [Example 69b]
34% | 101 nM |  | CC[C@]12Cc3cnn(-c4ccc(F)cc4)c3C=C1CC[C@@]2(O)CC(O)c1cncc(F)c1 (stereo partly drawn) [Example 73, (4aS,5R)-4a-Ethyl-1-(4-fluorophenyl)-5-[2-(5-fluoropyridin-3-yl)-2-hydroxyethyl]-1,4,4a,5,6,7-hexahydrocyclopenta[f]indazol-5-ol]
51% | 45 nM |  | CC[C@]12Cc3cnn(-c4ccccc4)c3C=C1CC[C@@]2(O)CCc1ccccc1C(N)=O [Example 20, 2-{2-[(4aS,5R)-4a-Ethyl-5-hydroxy-1-phenyl-1,4,4a,5,6,7-hexahydrocyclopenta[f]indazol-5-yl]ethyl}benzamide]

Source: patent US20120214847A1, “2-[1-PHENYL-5-HYDROXY-4a-SUBSTITUTED-HEXAHYDROCYCLOPENTA[F]INDAZOL-5-YL]ETHYL PHENYL DERIVATIVES AS GLUCOCORTICOID RECEPTOR LIGANDS” (Merck Sharp & Dohme Corp., priority 2009, published 2012)
